# Laboratory results: patent publication US11161817B2, “Quinoline derivative and use thereof as tyrosine kinase inhibitor” (CHONGQING PHARMACEUTICAL INDUSTRIAL RESEARCH INSTITUTE CO. …, priority 2017, dated 2021)
# Assays:
# [1] = target: TNIK(h) (Homo sapiens, UniProt Q9UKE5); assay: In vitro kinase activity test, TNIK(h)
# Method: (§1) Protein kinase with a corresponding enzyme concentration of X (shown in table 1), peptide substrate with a concentration of Y, ATP with a specific concentration, 8 mM MOPS (pH 7.0), and 10 mM MgCl2 were added. The detection plate was P30 filtermat, and the reaction was performed at room temperature for T minutes, and the reaction system was 10 μL.
# (§2) The reaction was terminated by adding 0.5% phosphoric acid to the kinase reaction solution, and the plate was read by an Envision instrument.
# (§3) The data were converted into phosphorylation rate and inhibition rate, and subjected to parameter curve-fitting (GraphPad Software) to obtain IC50 data of the compounds.
# [2] = target: Lck(h) (Homo sapiens, UniProt P06239); assay: In vitro kinase activity test, Lck(h)
# Method: as §1, §2, §3
# [3] = target: FGFR4(h) (Homo sapiens, UniProt P22455); assay: In vitro kinase activity test, FGFR4(h)
# Method: as §1, §2, §3
# [4] = target: FGFR1(h) (Homo sapiens, UniProt P11362); assay: In vitro kinase activity test, FGFR1(h)
# Method: as §1, §2, §3
# [5] = target: T1, Aurora-A(h) (Homo sapiens, UniProt O14965); assay: In vitro kinase activity test, Aurora-A(h)
# T1 sequence (O14965 1-403): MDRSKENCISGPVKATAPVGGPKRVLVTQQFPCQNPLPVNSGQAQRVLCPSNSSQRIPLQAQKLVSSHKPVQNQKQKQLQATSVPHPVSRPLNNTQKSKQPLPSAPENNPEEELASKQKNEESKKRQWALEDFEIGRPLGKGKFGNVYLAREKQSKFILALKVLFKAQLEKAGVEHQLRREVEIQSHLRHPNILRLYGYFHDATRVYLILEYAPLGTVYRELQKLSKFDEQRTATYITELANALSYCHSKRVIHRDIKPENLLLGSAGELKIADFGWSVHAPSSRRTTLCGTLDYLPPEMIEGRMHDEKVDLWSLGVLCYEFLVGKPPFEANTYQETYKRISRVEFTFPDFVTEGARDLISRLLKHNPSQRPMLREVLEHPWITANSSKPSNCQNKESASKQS
# Method: as §1, §2, §3
# [6] = target: cKit(h) (Homo sapiens, UniProt P10721); assay: In vitro kinase activity test, cKit(h)
# Method: as §1, §2, §3
# [7] = target: KDR(h) (Homo sapiens, UniProt P35968); assay: In vitro kinase activity test, KDR(h)
# Method: as §1, §2, §3
# [8] = target: PDGFRβ(h) (Homo sapiens, UniProt P09619); assay: In vitro kinase activity test, PDGFRβ(h)
# Method: as §1, §2, §3
# [9] = target: c-Met (Homo sapiens, UniProt P08581); assay: In vitro kinase activity test, c-Met
# Method: as §1, §2, §3
# [10] = target: PDGFRα(h) (Homo sapiens, UniProt P16234); assay: In vitro kinase activity test, PDGFRα(h)
# Method: as §1, §2, §3
# [11] = target: MINK(h) (Homo sapiens, UniProt Q8N4C8); assay: In vitro kinase activity test, MINK(h)
# Method: as §1, §2, §3
# [12] = target: Flt4(h) (Homo sapiens, UniProt P35916); assay: In vitro kinase activity test, Flt4(h)
# Method: as §1, §2, §3
# [13] = target: Abl(h) (Homo sapiens, UniProt P00519); assay: In vitro kinase activity test, Abl(h)
# Method: as §1, §2, §3
# [14] = target: FGFR2(h) (Homo sapiens, UniProt P21802); assay: In vitro kinase activity test, FGFR2(h)
# Method: as §1, §2, §3
# [15] = target: cKit(V560G)(h) (Homo sapiens, UniProt P10721, V560G); assay: In vitro kinase activity test, cKit(V560G)(h)
# Method: as §1, §2, §3
# [16] = target: Flt1(h) (Homo sapiens, UniProt P17948); assay: In vitro kinase activity test, Flt1(h)
# Method: as §1, §2, §3
# [17] = target: FGFR3(h) (Homo sapiens, UniProt P22607); assay: In vitro kinase activity test, FGFR3(h)
# Method: as §1, §2, §3
# Sequence of Abl(h) (P00519 whole entry): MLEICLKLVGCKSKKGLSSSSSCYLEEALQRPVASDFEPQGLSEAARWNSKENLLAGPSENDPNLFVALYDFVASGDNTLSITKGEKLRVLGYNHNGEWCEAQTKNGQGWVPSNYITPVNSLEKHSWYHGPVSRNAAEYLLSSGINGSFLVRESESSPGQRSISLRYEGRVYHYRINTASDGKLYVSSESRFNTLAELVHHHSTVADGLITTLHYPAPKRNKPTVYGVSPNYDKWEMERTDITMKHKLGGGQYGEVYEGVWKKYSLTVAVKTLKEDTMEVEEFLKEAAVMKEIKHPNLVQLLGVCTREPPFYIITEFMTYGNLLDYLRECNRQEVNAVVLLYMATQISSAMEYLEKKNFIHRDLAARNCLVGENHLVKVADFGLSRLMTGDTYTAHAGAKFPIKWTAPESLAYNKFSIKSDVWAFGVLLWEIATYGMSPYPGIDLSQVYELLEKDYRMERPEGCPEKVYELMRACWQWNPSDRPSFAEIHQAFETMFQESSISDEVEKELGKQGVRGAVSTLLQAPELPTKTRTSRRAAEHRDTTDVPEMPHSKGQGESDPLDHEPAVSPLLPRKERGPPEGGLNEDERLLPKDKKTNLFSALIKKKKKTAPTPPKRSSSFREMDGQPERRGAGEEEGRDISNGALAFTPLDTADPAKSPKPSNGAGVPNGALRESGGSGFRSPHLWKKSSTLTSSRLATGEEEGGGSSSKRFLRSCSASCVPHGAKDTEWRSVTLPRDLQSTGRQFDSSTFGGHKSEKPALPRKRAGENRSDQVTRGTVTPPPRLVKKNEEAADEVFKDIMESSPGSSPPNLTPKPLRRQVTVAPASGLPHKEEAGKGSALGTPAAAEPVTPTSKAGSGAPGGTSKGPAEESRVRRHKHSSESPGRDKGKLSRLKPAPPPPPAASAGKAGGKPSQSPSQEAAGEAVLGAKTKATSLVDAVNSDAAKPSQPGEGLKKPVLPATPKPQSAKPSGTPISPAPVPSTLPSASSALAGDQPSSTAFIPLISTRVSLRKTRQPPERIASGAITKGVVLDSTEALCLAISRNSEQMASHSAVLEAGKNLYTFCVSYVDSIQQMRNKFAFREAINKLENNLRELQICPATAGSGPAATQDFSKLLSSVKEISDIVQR
# Sequence of TNIK(h) (Q9UKE5 whole entry): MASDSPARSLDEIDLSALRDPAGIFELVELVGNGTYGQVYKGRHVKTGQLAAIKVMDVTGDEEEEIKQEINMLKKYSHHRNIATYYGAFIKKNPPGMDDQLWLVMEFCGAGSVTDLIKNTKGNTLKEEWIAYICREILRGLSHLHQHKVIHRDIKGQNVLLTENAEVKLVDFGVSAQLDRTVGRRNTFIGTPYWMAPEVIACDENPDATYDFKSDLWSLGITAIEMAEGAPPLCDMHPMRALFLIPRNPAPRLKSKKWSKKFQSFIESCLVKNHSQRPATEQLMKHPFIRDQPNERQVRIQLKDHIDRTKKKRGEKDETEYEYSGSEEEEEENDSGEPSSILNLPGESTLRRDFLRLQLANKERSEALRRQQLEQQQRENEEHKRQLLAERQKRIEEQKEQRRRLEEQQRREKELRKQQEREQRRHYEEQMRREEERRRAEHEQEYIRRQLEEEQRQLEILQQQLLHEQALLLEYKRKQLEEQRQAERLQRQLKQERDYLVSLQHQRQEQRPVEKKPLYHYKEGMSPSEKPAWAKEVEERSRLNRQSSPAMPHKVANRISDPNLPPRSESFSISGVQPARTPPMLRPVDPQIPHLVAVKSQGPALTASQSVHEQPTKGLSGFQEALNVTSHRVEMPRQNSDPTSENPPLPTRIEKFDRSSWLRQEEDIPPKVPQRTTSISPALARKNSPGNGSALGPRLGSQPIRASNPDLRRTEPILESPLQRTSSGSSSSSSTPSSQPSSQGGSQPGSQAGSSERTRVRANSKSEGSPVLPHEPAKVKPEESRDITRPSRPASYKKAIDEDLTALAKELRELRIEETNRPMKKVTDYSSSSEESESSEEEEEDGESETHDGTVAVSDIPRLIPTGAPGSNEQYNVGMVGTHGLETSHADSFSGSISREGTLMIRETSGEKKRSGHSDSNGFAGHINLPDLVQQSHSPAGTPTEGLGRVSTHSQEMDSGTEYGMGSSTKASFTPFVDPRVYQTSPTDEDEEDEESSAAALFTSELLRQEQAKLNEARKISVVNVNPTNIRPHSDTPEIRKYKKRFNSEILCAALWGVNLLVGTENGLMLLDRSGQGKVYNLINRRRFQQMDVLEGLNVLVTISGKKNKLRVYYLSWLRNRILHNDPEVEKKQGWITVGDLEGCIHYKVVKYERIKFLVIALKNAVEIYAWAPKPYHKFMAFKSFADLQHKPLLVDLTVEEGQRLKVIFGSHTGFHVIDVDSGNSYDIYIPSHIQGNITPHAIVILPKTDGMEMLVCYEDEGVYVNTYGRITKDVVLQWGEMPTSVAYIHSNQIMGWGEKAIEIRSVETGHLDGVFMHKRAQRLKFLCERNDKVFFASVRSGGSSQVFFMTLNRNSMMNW
# Sequence of c-Met (P08581 25-1390): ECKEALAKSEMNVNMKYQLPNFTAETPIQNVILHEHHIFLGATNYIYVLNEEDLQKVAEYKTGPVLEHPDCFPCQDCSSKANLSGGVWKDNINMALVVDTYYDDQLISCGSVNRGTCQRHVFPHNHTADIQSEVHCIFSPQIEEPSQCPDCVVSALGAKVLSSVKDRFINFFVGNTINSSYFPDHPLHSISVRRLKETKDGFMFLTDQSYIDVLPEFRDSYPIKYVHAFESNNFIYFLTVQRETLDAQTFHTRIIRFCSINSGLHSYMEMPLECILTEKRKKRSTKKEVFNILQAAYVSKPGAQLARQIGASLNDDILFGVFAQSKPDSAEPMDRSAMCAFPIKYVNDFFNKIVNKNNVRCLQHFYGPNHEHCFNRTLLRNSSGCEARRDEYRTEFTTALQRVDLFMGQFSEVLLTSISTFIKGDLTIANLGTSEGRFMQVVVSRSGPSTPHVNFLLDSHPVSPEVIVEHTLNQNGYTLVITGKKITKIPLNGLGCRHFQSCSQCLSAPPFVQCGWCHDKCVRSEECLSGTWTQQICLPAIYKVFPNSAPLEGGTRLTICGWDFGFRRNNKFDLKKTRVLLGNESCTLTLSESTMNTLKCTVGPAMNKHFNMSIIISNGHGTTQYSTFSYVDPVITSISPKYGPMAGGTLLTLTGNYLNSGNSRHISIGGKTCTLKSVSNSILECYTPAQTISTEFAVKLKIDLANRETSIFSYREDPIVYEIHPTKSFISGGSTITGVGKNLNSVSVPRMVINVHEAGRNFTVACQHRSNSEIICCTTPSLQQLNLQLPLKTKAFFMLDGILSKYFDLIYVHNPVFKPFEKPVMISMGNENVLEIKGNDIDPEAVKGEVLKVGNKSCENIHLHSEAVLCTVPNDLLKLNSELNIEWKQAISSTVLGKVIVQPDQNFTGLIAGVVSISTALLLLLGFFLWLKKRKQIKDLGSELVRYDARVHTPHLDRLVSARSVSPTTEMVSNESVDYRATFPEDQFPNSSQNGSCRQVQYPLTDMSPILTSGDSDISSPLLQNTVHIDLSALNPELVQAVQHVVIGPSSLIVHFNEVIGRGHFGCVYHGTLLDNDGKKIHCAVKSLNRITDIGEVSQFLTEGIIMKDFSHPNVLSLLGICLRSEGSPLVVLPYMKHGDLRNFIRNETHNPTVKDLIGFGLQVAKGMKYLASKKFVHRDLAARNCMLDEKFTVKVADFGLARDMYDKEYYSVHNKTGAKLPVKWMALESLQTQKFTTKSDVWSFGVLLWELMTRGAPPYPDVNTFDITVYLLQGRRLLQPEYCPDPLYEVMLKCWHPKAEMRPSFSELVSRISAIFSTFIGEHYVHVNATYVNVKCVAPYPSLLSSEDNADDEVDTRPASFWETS
# Sequence of FGFR2(h) (P21802 22-821): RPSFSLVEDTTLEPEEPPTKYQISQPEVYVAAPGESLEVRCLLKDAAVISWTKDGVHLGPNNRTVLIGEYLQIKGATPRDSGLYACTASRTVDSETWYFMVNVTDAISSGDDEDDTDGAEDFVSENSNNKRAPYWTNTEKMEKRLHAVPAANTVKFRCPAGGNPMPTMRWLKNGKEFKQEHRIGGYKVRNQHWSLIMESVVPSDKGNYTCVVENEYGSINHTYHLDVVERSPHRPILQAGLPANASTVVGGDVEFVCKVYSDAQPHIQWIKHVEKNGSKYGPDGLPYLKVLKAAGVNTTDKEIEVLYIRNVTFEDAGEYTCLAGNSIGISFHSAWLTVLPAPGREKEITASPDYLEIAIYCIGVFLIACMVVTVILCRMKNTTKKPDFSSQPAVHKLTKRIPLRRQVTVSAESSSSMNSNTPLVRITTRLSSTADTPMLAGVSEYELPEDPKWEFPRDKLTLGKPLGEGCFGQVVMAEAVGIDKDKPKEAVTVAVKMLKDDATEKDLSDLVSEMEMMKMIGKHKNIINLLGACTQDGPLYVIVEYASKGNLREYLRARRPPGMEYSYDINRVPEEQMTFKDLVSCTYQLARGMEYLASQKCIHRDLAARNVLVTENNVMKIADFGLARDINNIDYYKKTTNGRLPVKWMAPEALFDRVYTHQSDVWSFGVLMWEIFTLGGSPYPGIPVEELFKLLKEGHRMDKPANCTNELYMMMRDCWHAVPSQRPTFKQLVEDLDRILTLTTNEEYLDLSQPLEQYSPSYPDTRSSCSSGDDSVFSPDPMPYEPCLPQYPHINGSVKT
smiles,measurement,setting,value
COc1cc2nccc(Oc3ccc(NC(=O)NC4CC4)c(Cl)c3F)c2cc1C(N)=O [Embodiment 1B],IC50,[1],14 nM
same,"activity on TNIK improved, compared with Comparative Compound 2",[1]; from Table 2,8 times
same,"activity on TNIK increased, compared with Comparative Compound 1",[1]; from Table 2,6.5 times
same,IC50,[2],43 nM
same,IC50,[3],92 nM
same,"activity on FGFR4 increased, compared with Comparative Compound 1",[3]; from Table 2,12 times
same,IC50,[4],9 nM
same,"activity on FGFR1 increased, compared with Comparative Compound 1",[4]; from Table 2,8 times
same,IC50,[5],2080 nM
same,IC50,[6],68 nM
same,IC50,[7],9 nM
same,IC50,[8],226 nM
same,IC50,"[9]; c-Met IC50, Table 2, ATP 10 μM",99.8 nM
same,IC50,"[9]; c-Met kinase activity IC50, Table 3, value 45.6 is from the second test (Note 1)",45.6 nM
same,"activity on c-Met increased, compared with Comparative Compound 1",[9]; from Table 2,5 times
same,IC50,[10],120 nM
same,IC50,[11],48 nM
same,IC50,[12],3 nM
same,IC50,[13],7 nM
same,"activity on ABL improved, compared with Comparative Compound 2",[13]; from Table 2,~70 times
same,"activity on ABL increased, compared with Comparative Compound 1",[13]; from Table 2,5 times
same,IC50,[14],6 nM
same,"activity on FGFR2 increased, compared with Comparative Compound 1",[14]; from Table 2,2 times
same,IC50,[15],262 nM
same,IC50,[16],10 nM
same,IC50,[17],26 nM
same,"activity on FGFR3 increased, compared with Comparative Compound 1",[17]; from Table 2,5 times
